These results are taken from ChEMBL document CHEMBL1144958 (Bioorg Med Chem Lett, 2003).

For one experiment, the system named is HEK293. As to the kind of experiment: Binding affinity towards nicotinic acetylcholine receptor alpha7 - 5-hydroxytryptamine 3 receptor was determined in transfected HEK cells (alpha7) using [125I]-alpha-BgTx as radioligand. The format is cell-based.
The target of experiment [1] is Neuronal acetylcholine receptor; alpha4/beta2 (Rattus norvegicus, UniProt P09483+P12390). As to the kind of experiment: Binding affinity towards alpha4-beta2 nicotinic receptor was determined in rat brain membrane using [3H]cytisine as radioligand. The format is cell membranes.
Chain of Neuronal acetylcholine receptor; alpha4/beta2 (P09483 whole entry): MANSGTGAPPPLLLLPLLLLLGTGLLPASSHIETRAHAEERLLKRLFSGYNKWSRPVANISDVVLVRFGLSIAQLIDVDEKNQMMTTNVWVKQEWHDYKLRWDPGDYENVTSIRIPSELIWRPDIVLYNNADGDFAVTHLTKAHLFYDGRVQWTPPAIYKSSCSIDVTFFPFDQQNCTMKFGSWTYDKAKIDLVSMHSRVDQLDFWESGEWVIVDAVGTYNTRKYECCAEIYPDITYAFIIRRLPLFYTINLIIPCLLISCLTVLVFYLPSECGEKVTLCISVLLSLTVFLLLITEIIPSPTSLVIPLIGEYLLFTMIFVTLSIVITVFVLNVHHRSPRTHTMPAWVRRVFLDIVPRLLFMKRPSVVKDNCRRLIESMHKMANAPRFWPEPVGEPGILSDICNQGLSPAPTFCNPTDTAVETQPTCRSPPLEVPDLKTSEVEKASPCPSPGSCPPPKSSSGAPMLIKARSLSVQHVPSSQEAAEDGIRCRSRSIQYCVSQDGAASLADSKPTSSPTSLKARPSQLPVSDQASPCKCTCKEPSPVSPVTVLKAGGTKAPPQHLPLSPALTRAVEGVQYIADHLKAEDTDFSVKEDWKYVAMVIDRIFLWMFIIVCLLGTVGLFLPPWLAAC
Chain of Neuronal acetylcholine receptor; alpha4/beta2 (P12390 whole entry): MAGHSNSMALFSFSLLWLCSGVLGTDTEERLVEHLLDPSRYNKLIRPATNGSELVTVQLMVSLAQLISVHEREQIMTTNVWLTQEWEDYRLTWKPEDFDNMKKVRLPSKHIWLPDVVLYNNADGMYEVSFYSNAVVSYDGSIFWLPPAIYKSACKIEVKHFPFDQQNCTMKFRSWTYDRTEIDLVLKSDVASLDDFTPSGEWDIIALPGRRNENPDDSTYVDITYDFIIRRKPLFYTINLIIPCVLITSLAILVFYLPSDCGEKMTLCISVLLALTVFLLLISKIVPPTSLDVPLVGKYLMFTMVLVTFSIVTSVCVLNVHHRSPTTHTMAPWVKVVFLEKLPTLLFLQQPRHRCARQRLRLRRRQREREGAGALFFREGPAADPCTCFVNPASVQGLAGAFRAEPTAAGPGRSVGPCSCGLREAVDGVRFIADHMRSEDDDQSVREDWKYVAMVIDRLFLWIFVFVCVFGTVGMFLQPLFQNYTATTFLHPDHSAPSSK

`O=C(CCl)Nc1ccc(C2CC3CCC2N3)cn1` (configuration not stated) came in with a binding affinity in the experiment with HEK293 of 23 µM. Also, the Ki (as a rule, a dissociation constant, usually derived from enzyme kinetics or from competition with a known ligand) in experiment [1] worked out at 16.3 nM.

Regarding `Clc1ncc(C2CC3CCC2N3)cn1` (configuration not stated), the binding affinity with HEK293 turned out to be 0.76 µM. Affinity in experiment [1] was put at a Ki of 0.31 nM.

In the experiment on HEK293, `COC(=O)Nc1ccc(C2CC3CCC2N3)cn1` (configuration not stated) gave a binding affinity of over 1000 µM. This compound showed a Ki in experiment [1] of 8100 nM.

On to `Clc1ccc(C2CC3CCC2N3)cn1` (configuration not stated), for which, in the experiment on HEK293, the binding affinity worked out at 0.075 µM.
